Test results reported in article PMC12756740, “A GH42 β‑Galactosidase from the Human Isolate Bifidobacterium breve DSM 20213: Biochemical and Transgalactosylation Properties Reveal the Potential for Galacto-oligosaccharides Synthesis” (ACS Omega, 2025).

Target: T1, Bbreβgal-III (Bifidobacterium breve, UniProt D4BMY8)
T1 construct: gene BIFBRE_03435; pET21a(+) NdeI/NotI, His-tagged, E. coli BL21 Star (DE3), IMAC purified
Assay: o-nitrophenol release at […] nm, nonlinear fit with substrate inhibition model
Assay type: biochemical
Conditions: substrate inhibition constant; 50 mM sodium phosphate pH 6.5, 30 °C

T1 sequence (D4BMY8 1-691): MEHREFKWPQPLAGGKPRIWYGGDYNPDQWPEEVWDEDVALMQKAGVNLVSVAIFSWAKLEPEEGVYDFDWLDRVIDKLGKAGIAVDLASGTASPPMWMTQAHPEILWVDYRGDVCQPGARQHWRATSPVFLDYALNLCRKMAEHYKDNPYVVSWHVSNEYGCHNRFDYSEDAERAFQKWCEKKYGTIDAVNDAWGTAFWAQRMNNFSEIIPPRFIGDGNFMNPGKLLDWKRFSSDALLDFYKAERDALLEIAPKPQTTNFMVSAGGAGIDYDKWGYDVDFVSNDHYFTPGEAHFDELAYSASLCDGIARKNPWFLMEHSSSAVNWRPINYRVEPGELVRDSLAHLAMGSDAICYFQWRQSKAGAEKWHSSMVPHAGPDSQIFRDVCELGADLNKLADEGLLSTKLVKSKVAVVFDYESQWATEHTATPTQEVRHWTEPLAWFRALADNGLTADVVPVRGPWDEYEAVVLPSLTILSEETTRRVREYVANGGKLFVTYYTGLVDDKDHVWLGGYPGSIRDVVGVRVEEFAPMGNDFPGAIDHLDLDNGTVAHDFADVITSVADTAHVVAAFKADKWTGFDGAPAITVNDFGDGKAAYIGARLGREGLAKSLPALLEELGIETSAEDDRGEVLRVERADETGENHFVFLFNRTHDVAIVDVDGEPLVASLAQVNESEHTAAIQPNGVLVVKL

k i,S: 13.84 ± 1.57 mM
Structure (SMILES): O=[N+]([O-])c1ccccc1O[C@@H]1O[C@H](CO)[C@H](O)[C@H](O)[C@H]1O [o-nitrophenyl-β-D-galactopyranoside]
